Activity calls are given as the source filed them. The calls are words filed in the database; no cut-off is given here.
Tests used:
[1] = biological target: T1, Protein mono-ADP-ribosyltransferase PARP3 (Homo sapiens) (UniProt Q9Y6F1); test: Inhibition of PARP3 (unknown origin)
T1 sequence (whole entry): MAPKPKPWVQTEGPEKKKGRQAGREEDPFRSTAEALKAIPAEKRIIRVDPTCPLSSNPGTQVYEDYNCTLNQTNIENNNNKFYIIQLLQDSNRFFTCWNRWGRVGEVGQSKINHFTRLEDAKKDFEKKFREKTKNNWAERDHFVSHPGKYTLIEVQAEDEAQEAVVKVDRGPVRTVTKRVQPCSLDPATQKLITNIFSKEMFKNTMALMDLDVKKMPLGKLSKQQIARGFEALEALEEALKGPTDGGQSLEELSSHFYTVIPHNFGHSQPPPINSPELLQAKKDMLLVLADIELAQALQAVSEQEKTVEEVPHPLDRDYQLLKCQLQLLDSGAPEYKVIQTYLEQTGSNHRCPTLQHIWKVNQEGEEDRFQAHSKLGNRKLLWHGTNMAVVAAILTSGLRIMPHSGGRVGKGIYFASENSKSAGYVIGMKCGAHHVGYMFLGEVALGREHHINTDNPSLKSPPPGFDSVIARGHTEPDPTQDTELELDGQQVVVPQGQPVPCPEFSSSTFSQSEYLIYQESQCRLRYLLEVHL

[2] = biological target: Protein mono-ADP-ribosyltransferase PARP6 (Homo sapiens) (UniProt Q2NL67); test: Inhibition of PARP6 (unknown origin)
Sequence of Protein mono-ADP-ribosyltransferase PARP6 (Homo sapiens) (Q2NL67 whole entry): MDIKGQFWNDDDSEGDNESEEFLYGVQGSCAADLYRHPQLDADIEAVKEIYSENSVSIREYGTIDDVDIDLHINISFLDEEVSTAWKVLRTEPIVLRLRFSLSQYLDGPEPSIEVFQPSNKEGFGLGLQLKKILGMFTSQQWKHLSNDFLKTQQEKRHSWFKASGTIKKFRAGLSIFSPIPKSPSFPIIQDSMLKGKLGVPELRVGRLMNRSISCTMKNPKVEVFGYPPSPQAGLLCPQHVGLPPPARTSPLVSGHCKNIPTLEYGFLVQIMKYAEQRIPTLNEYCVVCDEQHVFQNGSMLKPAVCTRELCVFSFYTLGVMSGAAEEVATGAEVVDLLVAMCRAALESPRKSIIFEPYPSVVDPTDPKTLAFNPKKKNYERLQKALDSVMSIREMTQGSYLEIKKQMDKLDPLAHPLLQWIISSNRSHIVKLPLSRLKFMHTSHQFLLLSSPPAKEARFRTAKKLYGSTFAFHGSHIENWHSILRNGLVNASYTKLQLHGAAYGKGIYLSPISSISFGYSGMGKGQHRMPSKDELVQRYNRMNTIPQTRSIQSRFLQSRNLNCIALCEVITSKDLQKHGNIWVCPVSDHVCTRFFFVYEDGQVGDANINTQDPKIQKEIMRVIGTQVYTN

[3] = biological target: T2, Protein mono-ADP-ribosyltransferase TIPARP (Homo sapiens) (UniProt Q7Z3E1); test: Inhibition of PARP7 (unknown origin)
T2 sequence (whole entry): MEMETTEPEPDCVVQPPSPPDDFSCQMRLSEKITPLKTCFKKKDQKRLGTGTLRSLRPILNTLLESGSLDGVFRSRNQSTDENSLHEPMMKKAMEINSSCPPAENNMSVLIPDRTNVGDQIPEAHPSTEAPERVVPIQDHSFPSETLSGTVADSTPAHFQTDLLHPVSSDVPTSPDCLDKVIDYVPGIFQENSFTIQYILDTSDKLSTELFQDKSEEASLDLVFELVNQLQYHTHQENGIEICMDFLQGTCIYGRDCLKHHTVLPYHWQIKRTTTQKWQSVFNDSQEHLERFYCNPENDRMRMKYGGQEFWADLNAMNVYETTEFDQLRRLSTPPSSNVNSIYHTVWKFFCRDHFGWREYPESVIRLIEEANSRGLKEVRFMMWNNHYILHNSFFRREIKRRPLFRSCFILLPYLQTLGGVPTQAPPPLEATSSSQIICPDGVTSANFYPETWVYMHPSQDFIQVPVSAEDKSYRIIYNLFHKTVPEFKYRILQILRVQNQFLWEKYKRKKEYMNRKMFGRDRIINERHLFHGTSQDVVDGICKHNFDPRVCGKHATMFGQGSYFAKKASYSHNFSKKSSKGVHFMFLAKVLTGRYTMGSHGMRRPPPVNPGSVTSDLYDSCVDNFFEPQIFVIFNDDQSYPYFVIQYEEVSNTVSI

[4] = biological target: T3, Protein mono-ADP-ribosyltransferase PARP8 (Homo sapiens) (UniProt Q8N3A8); test: Inhibition of PARP8 (unknown origin)
T3 sequence (whole entry): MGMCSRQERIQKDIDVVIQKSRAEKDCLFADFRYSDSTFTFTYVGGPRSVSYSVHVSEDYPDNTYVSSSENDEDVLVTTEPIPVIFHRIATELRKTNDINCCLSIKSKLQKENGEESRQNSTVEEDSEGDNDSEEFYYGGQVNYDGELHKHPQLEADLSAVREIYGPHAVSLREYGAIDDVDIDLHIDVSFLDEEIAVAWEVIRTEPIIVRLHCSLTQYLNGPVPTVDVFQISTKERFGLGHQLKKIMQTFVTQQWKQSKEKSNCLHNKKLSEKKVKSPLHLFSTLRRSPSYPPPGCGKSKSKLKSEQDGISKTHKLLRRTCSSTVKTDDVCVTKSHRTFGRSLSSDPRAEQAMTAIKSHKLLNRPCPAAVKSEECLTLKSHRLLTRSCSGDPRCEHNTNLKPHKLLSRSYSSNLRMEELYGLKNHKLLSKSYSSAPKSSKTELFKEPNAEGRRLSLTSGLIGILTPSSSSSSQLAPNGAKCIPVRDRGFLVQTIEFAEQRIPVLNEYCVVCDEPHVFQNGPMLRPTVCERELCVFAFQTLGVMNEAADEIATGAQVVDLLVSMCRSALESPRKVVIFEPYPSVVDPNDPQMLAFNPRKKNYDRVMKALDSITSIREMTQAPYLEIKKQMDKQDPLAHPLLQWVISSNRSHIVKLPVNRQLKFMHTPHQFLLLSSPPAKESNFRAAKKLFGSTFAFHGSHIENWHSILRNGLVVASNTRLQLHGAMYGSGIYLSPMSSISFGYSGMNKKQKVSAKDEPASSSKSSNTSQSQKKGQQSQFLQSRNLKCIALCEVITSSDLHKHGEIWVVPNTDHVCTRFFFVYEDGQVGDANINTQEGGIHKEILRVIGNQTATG

[5] = biological target: Protein mono-ADP-ribosyltransferase PARP14 (Homo sapiens) (UniProt Q460N5); test: Inhibition of PARP14 (unknown origin)
Sequence of Protein mono-ADP-ribosyltransferase PARP14 (Homo sapiens) (Q460N5 whole entry): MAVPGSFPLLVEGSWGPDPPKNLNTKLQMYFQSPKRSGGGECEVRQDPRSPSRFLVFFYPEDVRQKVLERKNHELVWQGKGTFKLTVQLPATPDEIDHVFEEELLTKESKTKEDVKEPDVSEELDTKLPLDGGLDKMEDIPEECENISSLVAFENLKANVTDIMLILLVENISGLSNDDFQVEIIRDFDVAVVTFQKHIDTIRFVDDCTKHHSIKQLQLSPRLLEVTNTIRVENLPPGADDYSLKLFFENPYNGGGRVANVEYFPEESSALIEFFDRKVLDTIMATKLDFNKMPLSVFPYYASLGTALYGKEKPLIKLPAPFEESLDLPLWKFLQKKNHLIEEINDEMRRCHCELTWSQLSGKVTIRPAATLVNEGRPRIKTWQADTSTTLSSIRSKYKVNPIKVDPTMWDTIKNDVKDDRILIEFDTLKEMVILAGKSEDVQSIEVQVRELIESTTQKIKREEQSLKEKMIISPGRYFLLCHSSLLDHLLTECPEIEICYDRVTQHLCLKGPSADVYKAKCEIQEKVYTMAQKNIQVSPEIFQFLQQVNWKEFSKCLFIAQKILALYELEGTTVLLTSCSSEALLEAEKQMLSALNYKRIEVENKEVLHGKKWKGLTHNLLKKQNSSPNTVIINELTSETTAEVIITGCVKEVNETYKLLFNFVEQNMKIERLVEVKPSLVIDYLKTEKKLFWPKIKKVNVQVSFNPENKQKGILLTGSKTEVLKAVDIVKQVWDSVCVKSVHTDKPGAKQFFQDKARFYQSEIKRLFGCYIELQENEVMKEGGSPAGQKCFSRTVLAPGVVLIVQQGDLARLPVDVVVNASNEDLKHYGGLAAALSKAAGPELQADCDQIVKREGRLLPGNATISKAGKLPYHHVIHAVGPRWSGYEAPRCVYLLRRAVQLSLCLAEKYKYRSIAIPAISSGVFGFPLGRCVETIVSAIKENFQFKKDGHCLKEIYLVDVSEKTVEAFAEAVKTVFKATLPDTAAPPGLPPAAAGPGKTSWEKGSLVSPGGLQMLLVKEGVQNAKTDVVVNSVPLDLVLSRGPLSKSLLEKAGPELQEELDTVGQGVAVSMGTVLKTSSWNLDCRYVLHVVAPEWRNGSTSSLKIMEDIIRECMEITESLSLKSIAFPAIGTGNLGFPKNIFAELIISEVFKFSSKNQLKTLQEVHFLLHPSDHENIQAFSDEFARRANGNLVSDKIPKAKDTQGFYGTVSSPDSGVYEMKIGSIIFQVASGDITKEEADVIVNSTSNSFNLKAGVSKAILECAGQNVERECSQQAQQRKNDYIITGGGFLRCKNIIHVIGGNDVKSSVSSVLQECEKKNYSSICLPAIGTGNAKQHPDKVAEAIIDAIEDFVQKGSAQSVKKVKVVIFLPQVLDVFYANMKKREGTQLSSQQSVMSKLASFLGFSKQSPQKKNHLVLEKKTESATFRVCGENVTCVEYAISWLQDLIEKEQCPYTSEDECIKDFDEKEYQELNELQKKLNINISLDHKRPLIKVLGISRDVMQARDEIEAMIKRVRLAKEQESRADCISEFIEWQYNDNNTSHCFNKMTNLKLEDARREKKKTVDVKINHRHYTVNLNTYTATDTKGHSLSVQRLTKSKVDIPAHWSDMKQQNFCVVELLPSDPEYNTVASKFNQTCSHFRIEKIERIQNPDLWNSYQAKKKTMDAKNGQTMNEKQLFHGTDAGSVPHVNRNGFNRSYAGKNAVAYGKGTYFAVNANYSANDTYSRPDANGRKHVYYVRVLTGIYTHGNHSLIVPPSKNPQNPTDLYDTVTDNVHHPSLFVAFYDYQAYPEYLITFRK

[6] = biological target: T4, Protein mono-ADP-ribosyltransferase PARP15 (Homo sapiens) (UniProt Q460N3); test: Inhibition of PARP15 (unknown origin)
T4 sequence (whole entry): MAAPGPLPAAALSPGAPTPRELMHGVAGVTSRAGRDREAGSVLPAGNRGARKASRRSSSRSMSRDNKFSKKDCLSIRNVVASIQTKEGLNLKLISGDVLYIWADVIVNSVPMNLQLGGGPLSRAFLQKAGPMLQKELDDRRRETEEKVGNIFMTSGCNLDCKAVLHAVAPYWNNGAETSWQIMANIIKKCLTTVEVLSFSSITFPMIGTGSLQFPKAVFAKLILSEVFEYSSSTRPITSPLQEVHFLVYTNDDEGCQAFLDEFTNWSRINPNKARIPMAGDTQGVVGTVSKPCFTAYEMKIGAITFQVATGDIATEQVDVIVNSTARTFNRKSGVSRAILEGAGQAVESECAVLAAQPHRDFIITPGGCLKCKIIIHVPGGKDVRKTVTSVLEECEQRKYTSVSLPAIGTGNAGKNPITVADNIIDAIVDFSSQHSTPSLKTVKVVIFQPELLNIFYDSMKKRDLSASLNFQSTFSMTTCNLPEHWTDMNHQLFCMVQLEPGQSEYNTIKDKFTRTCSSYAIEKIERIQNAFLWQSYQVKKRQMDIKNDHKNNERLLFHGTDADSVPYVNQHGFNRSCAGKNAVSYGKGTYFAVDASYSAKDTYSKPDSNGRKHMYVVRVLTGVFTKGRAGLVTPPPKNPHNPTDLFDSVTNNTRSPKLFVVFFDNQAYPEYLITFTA

Structure (SMILES) | inhibition [1] | inhibition [2] | inhibition [3] | inhibition [4] | inhibition [5] | inhibition [6]
Cc1cc(OCC(=O)NCCNC(=O)c2cccc(COc3ccccc3C(N)=O)c2)c2c3c(c(=O)oc2c1)CCC3 | inactive | inactive | inactive | inactive | inactive | Active
CNC(=O)[C@H](CNC(=O)CCn1c(=O)[nH]c(=O)c2ccccc21)NC(=O)c1cnc2ccccc2c1 | inactive | inactive | inactive | inactive | inactive | inactive

Source: ChEMBL document CHEMBL5331077, “Combining pharmacophore models derived from DNA-encoded chemical libraries with structure-based exploration to predict Tankyrase 1 inhibitors” (Eur J Med Chem, 2023)
